# Columns and labels:
# Assay type in all cases: cell-based
# [1] = system: P. falciparum 3D7 (chloroquine-sensitive); assay: Anti-malarial activity, P. falciparum 3D7 culture, 72 hour, DNA content by flow cytometry; conditions: synchronized ring-stage parasites
# Experimental: Numerous compounds were screened in cultures of the malaria parasite P. falciparum 3D7 (chloroquine-sensitive) and DD2 (chloroquine-resistant). The compounds were also screened for toxixcity against 3T3 cells, HepG2 cells, and in a hemolysis assay. In brief, P. falciparum parasites were cultured in RPMI 1640 (Invitrogen) supplemented with Albumax II (Invitrogen). For synchronization, schizont stage parasites were magnet purified using a SuperMACS™ II Cell Separation Unit (Miltenyi Biotech). For IC50 determinations, synchronized ring-stage parasites were plated at 0.5% parasitemia and 8% hematocrit in 96-well plates at a total volume of 50 μL. Serial dilutions of 2× concentration of the respective compound, ranging from 2.5 μM to 20 nM, were added to the wells to bring the total volume up to 100 μL and 4% hematocrit. Compounds were assayed for a 72 hour period, after which the cultures were fixed with a solution of 4% paraformaldehyde and 0.08% glutaraldhyde in PBS. The cells were then permeabilized with 0.25% Triton X-100, and SYTOX Green Nucleic Acid Stain (Invitrogen) in PBS was added to a final concentration of 5 μM. DNA content, as an indicator of parasitemia, was analyzed on an Accuri C6 Flow Cytometer with C-Sampler. IC50 curves were generated using GraphPad Prism (GraphPad Software).
# 3T3 cells = assay: Cytotoxicity against 3T3 cells
# HepG2 cells = assay: Cytotoxicity against HepG2 cells
SMILES,IC50 [1] [µM],EC50 (3T3 cells) [µM],EC50 (HepG2 cells) [µM]
Nc1cccc(NC(=O)c2cc(C(=O)Nc3cccc(N)n3)ncn2)n1 [Compound 189],> 2,> 1000,> 1000
CCn1c2ccc(N3CCC(N(C)C)CC3)cc2c2cc(N3CCC(N(C)C)CC3)ccc21 [Compound 298],,> 1000,> 1000
N=C(N)NCCc1cccc(NC(=O)c2cc(C(=O)Nc3cccc(CCNC(=N)N)c3)nc(SCCN)n2)c1 [Compound 182],0.56,330,345
COc1cc(SCCN)c(C(F)(F)F)cc1NC(=O)Nc1cc(C(F)(F)F)c(SCCN)cc1OC [Compound 277],0.57,31,64
CCn1c2ccc(N3CCNCC3)cc2c2cc(N3CCNCC3)ccc21 [Compound 293],> 0.1,469,> 1000
NCCc1cccc(-c2cn(-c3cccc(CCN)c3)nn2)c1 [Compound 250],0.556,> 1000,> 1000
CCn1c2ccc(C3=CCNCC3)cc2c2cc(C3=CCNCC3)ccc21 [Compound 282],> 0.1,57,126
CCn1c2ccc(C3=CCN(C(=N)N)CC3)cc2c2cc(C3=CCN(C(=N)N)CC3)ccc21 [Compound 287],> 0.1,84,200
NCCc1cccc(-c2ccc(-c3cccc(CCN)c3)cc2)c1 [Compound 235],> 2,14,156
NCCCSc1ccc(NC(=O)Nc2ccc(SCCCN)c(C(F)(F)F)c2)cc1C(F)(F)F [Compound 274],> 2,72,164
N=C(N)NCCSc1ccc(NC(=O)Nc2ccc(SCCCN)c(C(F)(F)F)c2)cc1C(F)(F)F [Compound 275],1.7,124,342
NCCc1cccc(-c2cnc(-c3cccc(CCN)c3)s2)c1 [Compound 242],> 2,71,584
N=C(N)NCCCOc1cccc(-c2cncc(-c3ccc(-c4cncc(-c5cccc(OCCCNC(=N)N)c5)c4)s3)c2)c1 [Compound 227],0.65,54,117
NCCc1cccc(-c2cc(-c3ccc(-c4cc(-c5cccc(CCN)c5)ncn4)s3)ncn2)c1 [Compound 229],0.628,3,262
Cn1c(-c2ccc(CCCN)cc2)cnc1-c1ccc(CCCN)cc1 [Compound 265],> 0.1,> 1000,> 1000
CCN(CC)CCN(CCN)c1c(F)cc(C(F)(F)F)cc1NC(=O)Nc1cc(C(F)(F)F)cc(F)c1N(CCN)CCN(CC)CC [Compound 127],0.738,132,413

SMILES,IC50 [1] [µM],EC50 (3T3 cells) [µM],EC50 (HepG2 cells) [µM]
C[N+]1(C)CCN(c2ccc(-c3ccc(-c4ccc(N5CC[N+](C)(C)CC5)cc4)o3)cc2)CC1 [Compound 264],,> 1000,> 1000
CCN(CC)CCN(CCN)c1ccc(C(F)(F)F)cc1NC(=O)Nc1cc(C(F)(F)F)ccc1N(CCN)CCN(CC)CC [Compound 126],0.66,140,562
NCCCOc1cccc(-c2ccc(-c3cccc(OCCCN)c3)s2)c1 [Compound 241],> 2,34,38
NCCc1cccc(-c2ccc(-c3cccc(CCN)c3)s2)c1 [Compound 236],> 2,< 14,186
N=C(N)NCCCn1c2ccc(C3=CCN(C(=N)N)CC3)cc2c2cc(C3=CCN(C(=N)N)CC3)ccc21 [Compound 289],> 0.1,248,425
NCCSc1c(NC(=O)c2cc(C(=O)Nc3cc(C(F)(F)F)cc(NC(=O)c4cccs4)c3SCCN)ncn2)cc(C(F)(F)F)cc1NC(=O)c1cccs1 [Compound 311],> 0.1,923,923
O=C(Nc1ccc(N2CCNCC2)cc1)c1cccc(C(=O)Nc2ccc(N3CCNCC3)cc2)n1 [Compound 211],> 0.1,> 1000,> 1000
CN1CCN(c2ccc(-c3ccc(-c4ccc(N5CCN(C)CC5)cc4)s3)cc2)CC1 [Compound 260],> 0.1,> 1000,> 1000
Cn1c(-c2cccc(CCN)c2)cnc1-c1cccc(CCN)c1 [Compound 245],0.541,> 1000,> 1000
CN(C)C1CCN(c2ccc3sc4ccc(N5CCC(N(C)C)CC5)cc4c3c2)CC1 [Compound 297],,518,675
CCn1c2ccc(C3CCNCC3)cc2c2cc(C3CCNCC3)ccc21 [Compound 283],> 0.1,153,284
CC1(C)c2cc(-c3cccc(CCN)c3)ccc2-c2ccc(-c3cccc(CCN)c3)cc21 [Compound 281],> 0.1,2,5
NCCSc1c(NC(=O)c2cccnc2)cc(C(F)(F)F)cc1NC(=O)c1cc(C(=O)Nc2cc(C(F)(F)F)cc(NC(=O)c3cccnc3)c2SCCN)ncn1 [Compound 315],,21,34
c1cc2sc3ccc(NC4CCNCC4)cc3c2cc1NC1CCNCC1 [Compound 295],,> 1000,> 1000
NCCCc1ccc(-c2ccc(-c3ccc(CCCN)cc3)s2)cc1 [Compound 263],,6,1

# Further compounds by falling IC50 [1], results first:
IC50 [1] [µM],SMILES,EC50 (3T3 cells) [µM],EC50 (HepG2 cells) [µM]
0.461,NCCCOc1cccc(-c2cncc(-c3ccc(-c4cncc(-c5cccc(OCCCN)c5)c4)s3)c2)c1 [Compound 225],35,179
0.369,N=C(N)NCCc1cccc(-c2cncc(-c3ccc(-c4cncc(-c5cccc(CCNC(=N)N)c5)c4)cc3)c2)c1 [Compound 231],998,> 1000
0.32,N=C(N)NCCc1cccc(NC(=O)Nc2cccc(CCNC(=N)N)c2)c1 [Compound 269],> 1000,> 1000
0.32,CCN(CC)CCN(CCN)c1c(Cl)cc(C(F)(F)F)cc1NC(=O)Nc1cc(C(F)(F)F)cc(Cl)c1N(CCN)CCN(CC)CC [Compound 124],20,24
0.226,N=C(N)NCCCOc1cc(OCCCNC(=N)N)c(-c2cccc(F)c2)cc1-c1cccc(F)c1 [Compound 138],78,85
0.225,N=C(N)NCCCCC(=O)Nc1cc(F)cc(NC(=O)c2cc(C(=O)Nc3cc(F)cc(NC(=O)CCCCNC(=N)N)c3SCCN)ncn2)c1SCCN [Compound 105],44,81
0.131,N=C(N)NCCCc1cccc(-c2cc(-c3cccc(CCCNC(=N)N)c3)ncn2)c1 [Compound 135],623,697
0.116,N=C(N)NCCCOc1cccc(-c2cncc(-c3cccc(OCCCNC(=N)N)c3)c2)c1 [Compound 133],295,551
0.109,N=C(N)NCCc1cccc(-c2ccc(-c3cccc(CCNC(=N)N)c3)s2)c1 [Compound 238],108,310
0.102,N=C(N)NCCc1cccc(-c2ccc(-c3cccc(CCNC(=N)N)c3)cc2)c1 [Compound 239],149,288
0.087,O=C(Nc1ccc(SCCNC2=NCCN2)c(C(F)(F)F)c1)Nc1ccc(SCCNC2=NCCN2)c(C(F)(F)F)c1 [Compound 268],74,447
0.08,N=C(N)N1CC=C(c2ccc3sc4ccc(C5=CCN(C(=N)N)CC5)cc4c3c2)CC1 [Compound 286],83,221
0.066,O=C(Nc1ccc(OC2CCNC2)c(F)c1)c1cc(C(=O)Nc2ccc(OC3CCNC3)c(F)c2)ncn1 (stereo not drawn) [Compound 209],431,516
0.059,N=C(N)NCCc1cccc(-c2cn(-c3cccc(CCNC(=N)N)c3)nn2)c1 [Compound 256],> 1000,> 1000
0.035,CN(C)C1CCN(c2ccc(NC(=O)c3cc(C(=O)Nc4ccc(N5CCC(N(C)C)CC5)cc4)ncn3)cc2)CC1 [Compound 213],244,51
0.034,NCCc1ccc(-c2ccc(-c3ccc(CCN)cc3)s2)cc1 [Compound 247],< 14,74
0.029,N=C(N)N1CCC(Oc2ccc(NC(=O)Nc3ccc(OC4CCN(C(=N)N)C4)c(C(F)(F)F)c3)cc2C(F)(F)F)C1 (stereo not drawn) [Compound 271],172,347
0.028,NCCc1ccccc1-c1ccc(-c2ccccc2CCN)s1 [Compound 249],7,46
0.026,N=C(N)N1CC[C@@H](Oc2ccc(NC(=O)c3cc(C(=O)Nc4ccc(O[C@@H]5CCN(C(=N)N)C5)c(C(F)(F)F)c4)ncn3)cc2C(F)(F)F)C1 [Compound 190],33,41
0.007,CN(C)CCSc1ccc(NC(=O)c2cc(C(=O)Nc3ccc(SCCN(C)C)cc3)ncn2)cc1 [Compound 202],632,648

# Reference: patent US20150094294A1, “COMPOUNDS AND METHODS FOR TREATING MALARIA” (Cellceutix Corporation, priority 2012, published 2015)
